A short description of data set [1]: Cytotoxicity assay, SW13 cells. The note with it: human.
For data set [2], the system named is RVFV. Put plainly: microbe, parasite or virus in culture. The data set is classed as cell-based. The following applies: Rift Valley fever virus, BHK-21, in Mesocricetus auratus, read-out: IC50 RVFV.
For data set [3], the system named is VEEV. Put plainly: microbe, parasite or virus in culture. Type of data set: cell-based. The note with it: Venezuelan equine encephalitis virus, Vero C1008, read-out: IC50 VEEV.
For data set [4], the system named is VEEV. Kind of data set: microbe, parasite or virus in culture. The data set is classed as cell-based. The following applies: Venezuelan equine encephalitis virus, HEK293, read-out: IC50 VEEV.
In data set [5] the test system is RVFV. Kind of data set: microbe, parasite or virus in culture. The following applies: Rift Valley fever virus, SW13, read-out: IC50 RVFV. The data set is classed as cell-based.
Data set [6] has as its system RVFV. Put plainly: microbe, parasite or virus in culture. The data set is classed as cell-based. The following applies: Rift Valley fever virus, HEK293, read-out: IC50 RVFV.
The subject of data set [7] is TOSV. Put plainly: microbe, parasite or virus in culture. The note with it: Toscana virus, Vero C1008, read-out: IC50 (TOSV). Type of data set: cell-based, Toscana virus.
Data set [8] is described as follows: Solubility in PBS pH 7.4. The following applies: PBS pH 7.4, 20 °C, pH 7.4, aqueous buffer.
For data set [9], the system named is TBEV. Put plainly: microbe, parasite or virus in culture. Type of data set: cell-based. The following applies: Tick-borne encephalitis virus, HEK293, read-out: IC50 TBEV.
The subject of data set [10] is DENV. Kind of data set: Virus yield reduction assay, DENV in Vero E6 cells. The data set is classed as cell-based. The following applies: Dengue virus, Vero C1008; Simian Vero E6 cells; FLAVI virus family.
The subject of data set [11] is ZIKV. Put plainly: Virus yield reduction assay, ZIKV in Vero E6 cells. The data set is classed as cell-based. The note with it: Zika virus, Vero C1008; Simian Vero E6 cells; FLAVI virus family.
Data set [12] has as its system YFV. Kind of data set: microbe, parasite or virus in culture. The data set is classed as cell-based. The note with it: Yellow fever virus, Vero C1008, read-out: IC50 YFV.
For data set [13], the system named is TBEV. Kind of data set: microbe, parasite or virus in culture. The data set is classed as cell-based. The following applies: Tick-borne encephalitis virus, SW13, read-out: IC50 TBEV.
Data set [14] deals with TBEV. Put plainly: microbe, parasite or virus in culture. The data set is classed as cell-based. The note with it: Tick-borne encephalitis virus, Vero C1008, read-out: IC50 TBEV.
Data set [15] is described as follows: Hepatic microsome stability. The following applies: 1 μm, 37° C., 0.5 mg/mL microsomes of mouse liver; cofactor: NADPH.
Data set [16] relates to YFV. Kind of data set: microbe, parasite or virus in culture. Type of data set: cell-based. The following applies: Yellow fever virus, BHK-21, in Mesocricetus auratus, read-out: IC50 YFV.
The nature of data set [17]: Cytotoxicity assay (CellTiter-Blue), Vero E6 cells. The note with it: monkey (simian), Vero E6 cells, CC50, Simian Vero E6 cells; value repeated under each virus. (Resazurin is reduced to fluorescent resorufin, in cell work by metabolically active cells.)
Data set [18] can be described thus: Cytotoxicity assay, BHK-21 cells. The following applies: hamster, BHK-21 cells, CC50, Hamster BHK-21 cells; value repeated under each virus.
Data set [19] concerns BHK-21. Put plainly: Cytotoxicity assay, BHK-21 cells. The note with it: Hamster BHK-21 cells; value repeated under each virus.
Data set [20] in a line: Plasma stability. The following applies: 1 μm, 37° C., mouse plasma diluted with 1 volume of PBS pH 7.4.
Data set [21] relates to RVFV. Put plainly: microbe, parasite or virus in culture. Type of data set: cell-based. The following applies: Rift Valley fever virus, Vero C1008, read-out: IC50 RVFV.
Data set [22] relates to HAZV. Kind of data set: microbe, parasite or virus in culture. The data set is classed as cell-based. The following applies: Hazara virus, Vero C1008, read-out: IC50 HAZV.
In data set [23] the test system is VEEV. Put plainly: microbe, parasite or virus in culture. The data set is classed as cell-based. The note with it: Venezuelan equine encephalitis virus, SW13, read-out: IC50 VEEV.
The nature of data set [24]: Plasma protein binding. The note with it: mouse, plasma diluted with 1 volume of PBS pH 7.4, pH 7.4.
Data set [25] relates to TBEV. Kind of data set: microbe, parasite or virus in culture. The data set is classed as cell-based. The note with it: Tick-borne encephalitis virus, L929, in Mus musculus, read-out: IC50 TBEV.
Data set [26] in a line: Log D (PBS pH 7.4/octanol).
Data set [27] is described as follows: Hydrolysis study in mouse liver extract. The following applies: FIG. 1, FIG. 2.
Data set [28] has as its system TAHV. Kind of data set: microbe, parasite or virus in culture. The data set is classed as cell-based. The note with it: Tahyna virus, Vero C1008, read-out: IC50 TAHV.
For data set [29], the system named is RVFV. Kind of data set: microbe, parasite or virus in culture. Type of data set: cell-based. The note with it: Rift Valley fever virus, L929, in Mus musculus, read-out: IC50 RVFV.
Data set [30] has as its system VEEV. Put plainly: microbe, parasite or virus in culture. The following applies: Venezuelan equine encephalitis virus, L929, in Mus musculus, read-out: IC50 VEEV. The data set is classed as cell-based.
Data set [31] concerns VEEV. Put plainly: microbe, parasite or virus in culture. The following applies: Venezuelan equine encephalitis virus, BHK-21, in Mesocricetus auratus, read-out: IC50 VEEV. The data set is classed as cell-based.
Data set [32] is described as follows: Cytotoxicity assay, L929 cells. The following applies: mouse.
Data set [33] in a line: Cytotoxicity assay (CellTiter-Blue), HEK-293 cells. The note with it: human.

In brackets after ≈: the same amount, converted by molar mass. Like-named read-outs stand apart in the source and are kept apart here.

Data on 3 molecules can be found in patent US20220227720A1, “DHODH INHIBITORS AND THEIR USE AS ANTIVIRAL AGENTS” (priority 2019, published 2022).

In general, CC50 refers to the concentration at which the toxic effect on the cells reaches its halfway point. What is called IC50 is the concentration needed to halve the response being measured. In general, solubility refers to how much of the substance goes into solution per volume. As usually defined, the fraction unbound is free concentration divided by total concentration. The term logD denotes lipophilicity at a set pH, counting ionised and neutral species.

Regarding `CCCCCc1ccc(C#Cc2ccc(NC(=O)C(C)C)c(C(=O)O)c2)cc1` [Example 9, 2-Isobutyramido-5-((4-pentylphenyl)ethynyl)benzoic acid], the 50% cytotoxic concentration (CC50) in data set [1] was 17000 nM; in data set [18], 50000 nM; in data set [19] it was 55000 nM. Besides, the IC50 was 43 nM in [2]; 10.7 nM in data set [3]; 1.5 nM in data set [4]; 11 nM in data set [5]; < 1.6 nM in [6]; 10 nM in [7]. Besides, the IC50 in data set [9] stood at 4.4 nM; in data set [10] it was 23 nM; in [11], 23 nM; in data set [12], 16 nM; in [13], 14 nM; in [14], 11.7 nM. The IC50 was 55 nM in data set [16], 10 nM in data set [21], 12 nM in data set [22] and 14 nM in data set [23]. Moreover, in data set [8], the solubility is 13 ± 6 µM (≈ 4.91 µg/mL). For the same molecule, in data set [15], the “Hepatic microsome stability [% remaining at 1 h]” value is listed as 45 ± 8 % remaining at 1 h. This molecule also registered a 50% cytotoxic concentration (CC50) at 4 days in [17] of 4000 nM. Besides, the “Plasma stability [% remaining at 2 h]” value in data set [20] came to 98 ± 3 % remaining at 2 h.

`CCC(C)c1ccccc1OCCCC(=O)Nc1ccccc1C(=O)O` (racemic) [Example 3] had a fraction unbound at 1 μM in data set [24] of 0.01. The IC50 was 300 nM in [25]; 30 nM in data set [3]; 50 nM in data set [4]; 50 nM in data set [5]; 15 nM in [6]; 70 ± 10 nM in [7]. Besides, the IC50 stood at 110 nM in data set [10]; 110 nM in data set [11]; 110 nM in data set [12]; 100 nM in [13]; 40 nM in data set [28]; 80 nM in data set [14]. For the same molecule, the IC50 is 170 nM in data set [29]; 600 nM in data set [30]; 160 nM in [21]; 110 nM in data set [22]; 130 nM in data set [23]. Also, the logD in data set [26] is 2.59 ± 0.03. The concentration in solution in data set [8] (solubility) was 1540 ± 50 µM (≈ 547 µg/mL). The “Hydrolysis in mouse liver extract (amide bond stability)” value in data set [27] was “cleavage of the amide bond”. In data set [17], this molecule came in with a CC50 at 4 days of 18500 ± 1500 nM. The “Plasma stability [% remaining at 2 h]” value in [20] was 85 ± 4 % remaining at 2 h.

On to `Cc1ccc(NC(=O)COc2ccccc2Cc2ccccc2)c(C(=O)O)c1` [Example 1], for which the IC50 came to 360 nM in data set [31]; 700 ± 30 nM in [2]; 80 nM in [25]; 70 nM in [3]; 280 nM in data set [5]; 40 ± 20 nM in data set [6]. For the same molecule, the IC50 in [7] is 90 nM; in [10], 190 nM; in data set [12], 200 nM; in data set [13] it was 670 nM; in data set [28], 170 nM; in [14], 220 nM. Also, the concentration for half-maximal inhibition (IC50) in [29] was 40 nM; in data set [21] it was 90 nM; in data set [22], 50 nM; in [23], 100 nM. Further, the cytotoxic concentration (CC50) in data set [32] turned out to be 60000 nM; in data set [1] it was 60000 nM; in data set [18] it was 140000 nM. Also, the fraction unbound at 1 μM in data set [24] was determined as 0.01. This molecule also came in with a half-maximal cytotoxic concentration (CC50) at 3 days in [33] of 80000 nM. The logD in [26] is 2.62 ± 0.03. In data set [8], the solubility was found to be 167 ± 7 µM (≈ 62.7 µg/mL). This molecule also yielded a CC50 at 4 days in data set [17] of 60000 ± 15000 nM. For the same molecule, the “Plasma stability [% remaining at 2 h]” value in [20] was found to be 75 ± 0 % remaining at 2 h.
